Measurements as given in publication PMC3128661 (Bioorganic & medicinal chemistry letters, 2011).

What was measured:
E. coli (J-53) = conditions: ref [4],[7]; cited from earlier work
Gram+ bacteria = conditions: ref [4],[7]; cited from earlier work
VRE = experiment: MIC determination in 96-well plates; assay type: cell-based, E. faecium; conditions: Enterococcus, read-out: MIC VRE

MIC (VRE) [µg/mL] | SMILES | activity against the Gram- bacterium E. coli (E. coli (J-53)) | MIC values against various organisms (Gram+ bacteria) [µg/mL]
– | CCc1cc(Nc2cc(=O)n(CCCCO)c(=O)[nH]2)ccc1C [Compound 1, HB-EMAU] | inactive | 2.5 to 5
> 80 | CCc1cc(Nc2cc3c(ncn3CCCCOC)c(=O)[nH]2)ccc1C [Compound 19b] | – | –
> 80 | CCc1cc(Nc2cc3c(ncn3CCCCN3CCOCC3)c(=O)[nH]2)ccc1C [Compound 21b] | – | –
> 80 | CCc1cc(Nc2nc(O)c3ncn(CCCCO)c3n2)ccc1C [Compound 2b] | – | –
